Data on 14 molecules can be found in BindingDB's records for doi:10.1124/mol.64.6.1283 (Barrow Neurological Institute, 2003).

Some results are limits rather than exact numbers.

Sequence of Neuronal acetylcholine receptor subunit alpha-4 (P43681 whole entry): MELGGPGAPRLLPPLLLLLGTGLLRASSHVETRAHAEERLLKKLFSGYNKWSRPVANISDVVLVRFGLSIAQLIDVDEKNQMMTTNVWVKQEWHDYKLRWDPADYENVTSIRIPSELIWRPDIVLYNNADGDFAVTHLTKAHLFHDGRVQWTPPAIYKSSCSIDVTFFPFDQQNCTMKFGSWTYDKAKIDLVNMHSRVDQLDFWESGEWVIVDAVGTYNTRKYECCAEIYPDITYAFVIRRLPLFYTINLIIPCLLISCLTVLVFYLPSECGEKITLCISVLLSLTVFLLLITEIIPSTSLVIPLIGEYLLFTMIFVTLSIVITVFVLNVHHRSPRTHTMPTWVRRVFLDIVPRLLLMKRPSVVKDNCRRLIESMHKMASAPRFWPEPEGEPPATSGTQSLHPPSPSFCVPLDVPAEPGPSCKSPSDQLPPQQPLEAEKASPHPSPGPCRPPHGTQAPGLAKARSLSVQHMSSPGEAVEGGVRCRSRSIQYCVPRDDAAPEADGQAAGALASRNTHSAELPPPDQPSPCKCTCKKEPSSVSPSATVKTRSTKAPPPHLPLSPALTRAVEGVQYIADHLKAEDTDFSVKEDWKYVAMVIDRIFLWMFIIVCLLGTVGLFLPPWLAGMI

This assay addresses Neuronal acetylcholine receptor subunit alpha-4 (Homo sapiens, UniProt P43681).
`C[N+](C)(C)CCOC(=O)CCC(=O)OCC[N+](C)(C)C` [2,2'-[(1,4-dioxobutane-1,4-diyl)bis(oxy)]bis(N,N,N-trimethylethanaminium)]: the Ki (commonly a measure of affinity in units of concentration, obtained from inhibition or displacement) is 2900 nM.

`COc1cc2c3cc1Oc1cc(ccc1O)C[C@H]1c4c(cc(OC)c(O)c4Oc4ccc(cc4)C[C@@H]3N(C)CC2)CC[N+]1(C)C` [CAS_57-94-3] registered an inhibition constant (Ki) of 2000 nM. The same measure for `C[N+]1(C)CCN(c2ccccc2)CC1` [DMPP]: 20 nM; for `O=c1cccc2n1CC1CNCC2C1` (centres undefined) [CAS_485-35-8]: 0.24 nM.

`C[N+](C)(C)CCOC(N)=O` [(2-Hydroxyethyl)trimethyl ammonium chloride carbamate] displayed a Ki of 150 nM. To `C[N+](C)(C)CCCCCCCCCC[N+](C)(C)C` [Decamethonium Iodide] belongs 1300 nM; to `CNC(=O)Oc1ccc2c(c1)C1(C)CCN(C)C1N2C` (centres undefined) [1,3a,8-trimethyl-1H,2H,3H,3aH,8H,8aH-pyrrolo[2,3-b]indol-5-yl N-methylcarbamate], over 10000 nM; to `C[N+](C)(C)CCOC(=O)CCCCCCC(=O)OCC[N+](C)(C)C` [NSC_123990], 13 nM. The same measure for `C=CC[N+]12CCC34c5ccccc5N5C=C6C7CC8C9(CC[N+]8(CC=C)CC7=CCO)c7ccccc7N(C=C(C(CC31)C(=CCO)C2)C54)C69` (centres undefined) [NSC_5311001]: over 10000 nM. In the case of `C[N+](C)(C)CCCCCC[N+](C)(C)C` [Hexamethoniumdibromide], the inhibition constant (Ki) was over 10000 nM. Consider `CC(=O)SCC[N+](C)(C)C` [ATC], for which the affinity corresponds to a Ki of 170 nM.

In turn, `CCN1CC2(COC(=O)c3ccccc3-n3c(O)cc(C)c3O)CCC(OC)C34C5CC6C(OC)CC(O)(C5C6OC)C(O)(C(OC)C23)C14` (centres undefined) [CAS_21019-30-7] yielded an inhibition constant (Ki) of 2800 nM. The molecule `CC(=O)OC1CC2CCC3C(CCC4(C)C3CC([N+]3(C)CCCCC3)C4OC(C)=O)C2(C)CC1N1CCCCC1` (centres undefined) [CAS_39764] showed a Ki of over 10000 nM. To `CC(=O)OC1CC2CCC3C(CCC4(C)C3CC([N+]3(C)CCCCC3)C4OC(C)=O)C2(C)CC1[N+]1(C)CCCCC1` (centres undefined) [NSC_27350] belongs over 10000 nM.
